From patent US11716994B2, “Combinations of Yersinia entomophaga and pesticides or other substances” (priority 2017, dated 2023)
Where “and” joins values, the source holds several entries; their conditions need not be identical. Equal entries are not always repeated. Where two headings read alike, the source gives them in different places.

Tests used:
Yersinia entomophaga = test: CFU counts after exposure of Yersinia entomophaga to insecticides; assay type: cell-based; conditions: 1 hour contact
Text: To test combinations of Yersinia entomophaga and pesticides for their ability to produce a pesticidal effect, or an effect on plant growth or yield, we first put various insecticides in contact with Yersinia to identify insecticides that had minimal toxicity to Yersinia entomophaga. The logic was that, if Yersinia entomophaga is to function well in combination with a chemical insecticide, the chemical insecticide would ideally have low or no effect on the ability of Yersinia entomophaga to survive, grow and/or to function.
To perform this study, we selected amounts of various insecticides based on the percent of the specific insecticide in the insecticide composition obtained from a manufacturer. We also considered the application rate of the particular insecticide, as recommended by the manufacturer. […] Generally, the 1× amount was considered possibly the lowest amount of insecticide that may be considered as an effective amount for use in the combinations disclosed herein. For each insecticide, we also used a higher amount of insecticide (generally a 5× or 10× amount).
The 1× and 5×/10× amounts of each insecticide were added to tubes along with 1 ml of ethyl acetate. The tubes were mixed until the insecticides dissolved. The tubes were left open in a fume hood overnight to allow the ethyl acetate to evaporate. The insecticide remained in the tubes, as a solid coat on the interior surface of the tubes.
A growing culture of Yersinia entomophaga, grown in LB medium, was diluted and 1 ml of the diluted culture was added to each tube containing the dried insecticide. The tubes were mixed and then left on the bench top for 1 hour. Then, 100 μl from each tube was plated onto LB plates in triplicate in CFU assays. Plates were incubated at 25° C. for 48 hours and colonies were counted.

cabbage looper [1] = test system: cabbage looper
fall armyworm [2] = test system: fall armyworm
Experimental: To produce cell free filtrates, cultures of Yersinia entomophaga grown in LB medium were centrifuged at 11,448 (g) for 10 minutes. The supernatant was decanted from the centrifuged pellet and filtered through a 0.22 μm filter. Assays were performed to determine concentrations of Yen-TC (toxin complex) using ELISA, and chitinase by measuring chitinase activity on specific substrates. […] This was done to estimate relative potency of the cell free filtrates. Insects were first pre-screened with a range of dilutions of cell free filtrates to select a concentration that provided moderate activity. […] Based on these initial screens, undiluted cell free filtrate was used for cabbage looper, fall armyworm, black cutworm, and Colorado potato beetle.
Cabbage leaf disks were dipped in either acetone (controls and Y. entomophaga alone treatments) or fipronil (Sigma 46451) at 12 mg/L in acetone. These were set to dry for 1 hr. […] After the cabbage disks had dried for 1 hr, a single 3rd instar fall armyworm was added to each individual cabbage disk. A total of 20 insects were evaluated for each treatment. Insects were observed daily and scored as live or dead.
Cabbage leaf disks were dipped in either acetone (controls and Y. entomophaga alone treatments) or esfenvalerate (Sigma 46277) at 56 mg/L in acetone. These were set to dry for 1 hr. […] After the cabbage disks had dried for 1 hr, a single 3rd instar fall armyworm was added to each individual cabbage disk. A total of 20 insects were evaluate for each treatment. Insects were observed daily and scored as live or dead.

cabbage looper [3] = test system: cabbage looper; remark: listed apart in the source
black cutworm [4] = test system: black cutworm
Experimental: (§2) To produce cell free filtrates, cultures of Yersinia entomophaga grown in LB medium were centrifuged at 11,448 (g) for 10 minutes. The supernatant was decanted from the centrifuged pellet and filtered through a 0.22 μm filter. Assays were performed to determine concentrations of Yen-TC (toxin complex) using ELISA, and chitinase by measuring chitinase activity on specific substrates. […] This was done to estimate relative potency of the cell free filtrates. Insects were first pre-screened with a range of dilutions of cell free filtrates to select a concentration that provided moderate activity. […] Based on these initial screens, undiluted cell free filtrate was used for cabbage looper, fall armyworm, black cutworm, and Colorado potato beetle. […] In each of the Examples below, this is expressed as 1%.
Cabbage leaf disks were dipped in either acetone (controls and Y. entomophaga alone treatments) or in indoxacarb (Sigma 33969) at 0.53 mg/L in acetone. These were set to dry for 1 hr. […] After the cabbage disks had dried for 1 hr, a single 2nd instar black cutworm was added to each individual cabbage disk. A total of 20 insects were evaluate for each treatment. Insects were observed daily and scored as live or dead.
Cabbage leaf disks were dipped in either acetone (controls and Y. entomophaga alone treatments) or in flubendiamide (Sigma 32801) at 0.59 mg/L in acetone. These were set to dry for 1 hr. […] After the cabbage disks had dried for 1 hr, a single 2nd instar black cutworm was added to each individual cabbage disk. A total of 20 insects were evaluate for each treatment. Insects were observed daily and scored as live or dead.

fall armyworm [5] = test: Leaf disk mortality assay, Y. entomophaga cells with chemical insecticides; conditions: for % Mortality (3DAT) / LT50 (95% confidence intervals) in days: 4th instar; for % Mort. Chem.: fall armyworm, Esfenvalerate 56 mg/L
black cutworm [6] = test: as above; conditions: for % Mort. Chem. / LT50 Chem.: black cutworm
western flower thrips = test: as above; assay type: in vivo; conditions: for mortality at 100 µg/mL: Frankliniella occidentalis, foliar; for mortality at 100 µg/mL / LT50 (95% confidence intervals) in days: adults, imidacloprid 100 mg/L; for % Mort. Chem.: Imidacloprid 100 mg/L
Experimental: These were set to dry for 1 hr. After the disks had dried, two were placed in individual cups and 12 adult western flower thrips were added. This experiment was repeated and a total of 24 insects were evaluated for each treatment.

Colorado potato beetle [7] = conditions: for LT50 (95% confidence intervals): 3rd instar Colorado potato beetle, O43NEW undiluted filtrate, alone or combined; for LT50 Chem. / % Mort. Chem.: Colorado potato beetle; for % Mort. Chem.: 6 DAT
Experimental: as §2
Tomato leaf disks were dipped in either acetone (controls and Y. entomophaga alone treatments) or thiacloprid (Sigma 37905) at 1 mg/L in acetone. These were set to dry for 1 hr. […] After the tomato disks had dried for 1 hr, a single 3rd instar Colorado potato beetle was added to each individual cabbage disk. A total of 20 insects were evaluate for each treatment. Insects were observed daily and scored as live or dead.

Colorado potato beetle [8] = test: Tomato leaf disk mortality assay, Y. entomophaga cells with chemical insecticides; conditions: for % Mort. Chem. / LT50 Chem.: Colorado potato beetle; for mortality at 0.56 µg/mL / mortality at 1 µg/mL: Leptinotarsa decemlineata, in Solanum lycopersicum, foliar
diamondback moth = test: whole plant or invertebrate; conditions: thiacloprid 100 mg/L; for mortality at 100 µg/mL: Plutella xylostella, foliar, Abbott's corrected
Text: (§1) These were set to dry for 1 hr.
as §1
These were set to dry for 1 hr. Cabbage disks were then dipped in either 1% Luria broth (LB) media solution (controls and thiacloprid alone treatments) or in 1% cell free filtrate from a culture Y. entomophaga isolate O24G3R (Y. entomophaga alone or in combination with thiacloprid treatments).

[9] = 3rd instar, esfenvalerate 5.6 mg/L, isolate O24G3R 1×10^4 cfu/mL
[10] = 3rd instar, esfenvalerate 56 mg/L, isolate O43NEW 1×10^6 cfu/mL
[11] = esfenvalerate 56 mg/L, isolate O23ZMJ 1×10^5 cfu/mL
[12] = esfenvalerate 56 mg/L, isolate O24G3R 1×10^5 cfu/mL
[13] = esfenvalerate 56 mg/L, isolate O348UX 1×10^5 cfu/mL
[14] = 3rd instar, esfenvalerate 5.6 mg/L, isolate O23ZMJ 1×10^5 cfu/mL
[15] = 3rd instar, esfenvalerate 5.6 mg/L, isolate O24G3R 1×10^5 cfu/mL
[16] = 3rd instar, esfenvalerate 5.6 mg/L, isolate O43NEW 1×10^5 cfu/mL
[17] = 3rd instar, esfenvalerate 5.6 mg/L, isolate O348UX 1×10^5 cfu/mL

## CC(C)[C@H](C(=O)O[C@H](C#N)c1cccc(Oc2ccccc2)c1)c1ccc(Cl)cc1 [Esfenvalerate]
Yersinia entomophaga; 0.8 mg insecticide
  Average CFU: 258 CFU
Yersinia entomophaga; 5.3 mg insecticide
  Average CFU: 0 CFU
Cabbage looper [1]; cabbage looper, Esfenvalerate 0.56 mg/L, 7 DAT
  % Mort. Chem.: 37%
Cabbage looper [1]; cabbage looper, Esfenvalerate alone 0.56 mg/L
  LT50 Chem.: 5.63 days
Cabbage looper [1]; in vivo
  % Mortality (2DAT): 5%
  LT50 (95% confidence intervals) in days: 5.63 (5.19-6.11) days
Fall armyworm [2]; Fall armyworm, esfenvalerate 56 mg/L
  LT50 Chem.: 9.84 days
Fall armyworm [2]; fall armyworm, Esfenvalerate 56 mg/L, 5 DAT
  % Mort. Chem.: 40%
Fall armyworm [2]; in vivo
  % Mortality (5DAT): 40%
  % Mortality (7DAT): 45%
  LT50 (95% confidence intervals): 9.84 days
Cabbage looper [3]; Cabbage Looper, esfenvalerate 0.56 mg/L
  LT50 Chem.: 5.23 days
Cabbage looper [3]; Cabbage Looper, esfenvalerate 0.56 mg/L, 5 DAT
  % Mort. Chem.: 40%
Cabbage looper [3]; in vivo
  % Mortality (5DAT): 40%
  % Mortality (6DAT): 70%
  % Mortality (8DAT): 83%
  LT50 (95% confidence intervals) in days: 5.23 (4.69-5.79) days
Black cutworm [4]; Black cutworm, esfenvalerate 5.6 mg/L
  LT50 Chem.: 3.68 days
Black cutworm [4]; Black cutworm, esfenvalerate 5.6 mg/L, 6 DAT
  % Mort. Chem.: 84%
Black cutworm [4]; in vivo
  % Mortality (6DAT): 84%
  LT50 (95% confidence intervals): 3.68 days
Fall armyworm [5]; [9]
  % Mortality (6DAT): 0%
  LT50 (95% confidence intervals): 20.00 days
Fall armyworm [5]; [10]
  % Mortality (5DAT): 5%
  % Mortality (7DAT): 5%
  % Mortality (9DAT): 11%
  % Mortality (11DAT): 6%
  LT50 (95% confidence intervals): 13.6 days
Fall armyworm [5]; [11]
  % Mortality (3DAT): 25%
  LT50 (95% confidence intervals) in days: 3.66 (3.28-4.09) days
Fall armyworm [5]; [12]
  % Mortality (3DAT): 25%
  LT50 (95% confidence intervals) in days: 3.66 (3.28-4.09) days
Fall armyworm [5]; [13]
  % Mortality (3DAT): 25%
  LT50 (95% confidence intervals) in days: 3.66 (3.28-4.09) days
Fall armyworm [5]; 3 DAT (row with O23ZMJ)
  % Mort. Chem.: 25%
Fall armyworm [5]; 3 DAT (row with O24G3R 1 × 10^5)
  % Mort. Chem.: 25%
Fall armyworm [5]; 3 DAT (row with O348UX)
  % Mort. Chem.: 25%
Fall armyworm [5]; 5 DAT
  % Mort. Chem.: 5%
Fall armyworm [5]; 6 DAT
  % Mort. Chem.: 0%
Black cutworm [6]; [14]
  % Mortality (3DAT): 42%
  % Mortality (4DAT): 61%
  LT50 (95% confidence intervals) in days: 3.40 (3.03-3.81) days
Black cutworm [6]; [15]
  % Mortality (5DAT): 50%
  % Mortality (6DAT): 56%
  % Mortality (7DAT): 69%
  LT50 (95% confidence intervals) in days: 5.29 (4.75-5.87) days
Black cutworm [6]; [16]
  % Mortality (3DAT): 40%
  % Mortality (4DAT): 45%
  LT50 (95% confidence intervals) in days: 3.97 (3.60-4.38) days
Black cutworm [6]; [17]
  % Mortality (5DAT): 50%
  % Mortality (6DAT): 56%
  % Mortality (7DAT): 69%
  LT50 (95% confidence intervals): 5.29 days
Black cutworm [6]; Esfenvalerate 1.87 mg/L, 5 DAT (row with O24G3R)
  % Mort. Chem.: 50%
Black cutworm [6]; Esfenvalerate 1.87 mg/L, 5 DAT (row with O348UX)
  % Mort. Chem.: 50%
Black cutworm [6]; Esfenvalerate 5.6 mg/L, 4 DAT (row with O23ZMJ)
  % Mort. Chem.: 61%
Black cutworm [6]; Esfenvalerate 5.6 mg/L, 4 DAT (row with O43NEW)
  % Mort. Chem.: 45%
Black cutworm [6]; Esfenvalerate alone 1.87 mg/L
  LT50 Chem.: 5.29 days
Black cutworm [6]; Esfenvalerate alone 5.6 mg/L
  LT50 Chem.: 3.97 days and 3.40 days

## O=[N+]([O-])NC1=NCCN1Cc1ccc(Cl)nc1 [Imidacloprid]
Western flower thrips; 24 h, isolate O333A4 1×10^5 cfu/mL, read-out: % Mortality (1DAT)
  mortality at 100 µg/mL: 16%
Western flower thrips; 48 h, isolate O43NEW 1×10^5 cfu/mL, read-out: % Mortality (2DAT)
  mortality at 100 µg/mL: 29%
Western flower thrips; isolate O43NEW 1×10^5 cfu/mL
  LT50 (95% confidence intervals) in days: 2.72 (2.40-3.08) days
Western flower thrips; isolate O333A4 1×10^5 cfu/mL
  LT50 (95% confidence intervals) in days: 2.72 (2.40-3.08) days
Western flower thrips; western flower thrips, 2 DAT (row with O43NEW)
  % Mort. Chem.: 29%
Western flower thrips; western flower thrips, 2 DAT (row with O333A4)
  % Mort. Chem.: 16%
Western flower thrips; western flower thrips, Imidacloprid alone 100 mg/L
  LT50 Chem.: 2.72 days
Colorado potato beetle [7]; imidacloprid 0.56 mg/L
  LT50 (95% confidence intervals): 18.03 days
  LT50 Chem.: 18.03 days
  % Mort. Chem.: 5%
Colorado potato beetle [8]; 4th instar larva, imidacloprid 0.56 mg/L, isolate O43NEW 1×10^7 cfu/mL
  LT50 (95% confidence intervals) in days: 20.38 (15.79-27.60) days
Colorado potato beetle [8]; Imidacloprid 0.56 mg/L, 10 DAT
  % Mort. Chem.: 17%
Colorado potato beetle [8]; Imidacloprid alone 0.56 mg/L
  LT50 Chem.: 20.38 days
Colorado potato beetle [8]; 72 h, read-out: % Mortality (3DAT)
  mortality at 0.56 µg/mL: 0%
Colorado potato beetle [8]; 240 h, read-out: % Mortality (10DAT)
  mortality at 0.56 µg/mL: 17%
Colorado potato beetle [8]; 312 h, read-out: % Mortality (13DAT)
  mortality at 0.56 µg/mL: 7%

## N#C/N=C1\SCCN1Cc1ccc(Cl)nc1 [Thiacloprid]
Diamondback moth; 2nd instar diamondback moth, O24G3R filtrate 1%, alone or combined
  LT50 (95% confidence intervals): 12.58 days
Diamondback moth; Diamondback moth
  LT50 Chem.: 12.58 days
Diamondback moth; Diamondback moth, 7 DAT
  % Mort. Chem.: 17%
Diamondback moth; 96 h, read-out: % Mortality (4DAT), 2nd instar diamondback moth, O24G3R filtrate 1%, alone or combined, 4 DAT
  mortality at 100 µg/mL: 5%
Diamondback moth; 120 h, read-out: % Mortality (5DAT), 2nd instar diamondback moth, O24G3R filtrate 1%, alone or combined, 5 DAT
  mortality at 100 µg/mL: 10%
Diamondback moth; 144 h, read-out: % Mortality (6DAT), 2nd instar diamondback moth, O24G3R filtrate 1%, alone or combined, 6 DAT
  mortality at 100 µg/mL: 10%
Diamondback moth; 168 h, read-out: % Mortality (7DAT), 2nd instar diamondback moth, O24G3R filtrate 1%, alone or combined, 7 DAT
  mortality at 100 µg/mL: 17%
Diamondback moth; 288 h, read-out: % Mortality (12DAT), 2nd instar diamondback moth, O24G3R filtrate 1%, alone or combined, 12 DAT
  mortality at 100 µg/mL: 27%
Diamondback moth; 312 h, read-out: % Mortality (13DAT), 2nd instar diamondback moth, O24G3R filtrate 1%, alone or combined, 13 DAT
  mortality at 100 µg/mL: 33%
Colorado potato beetle [7]; thiacloprid 1 mg/L
  LT50 (95% confidence intervals): 12.71 days
  LT50 Chem.: 12.71 days
  % Mort. Chem.: 13%
Colorado potato beetle [8]; 2nd instar larva, thiacloprid 1 mg/L, isolate O43NEW 1×10^6 cfu/mL
  LT50 (95% confidence intervals) in days: 6.99 (6.44-7.58) days
Colorado potato beetle [8]; Thiacloprid 1 mg/L, 5 DAT
  % Mort. Chem.: 26%
Colorado potato beetle [8]; Thiacloprid alone 1 mg/L
  LT50 Chem.: 6.99 days
Colorado potato beetle [8]; 96 h, read-out: % Mortality (4DAT)
  mortality at 1 µg/mL: 26%
Colorado potato beetle [8]; 120 h, read-out: % Mortality (5DAT)
  mortality at 1 µg/mL: 26%
